# Measured values as given in US20180110978A1, “SYNERGISTIC REGULATED CELL DEATH INDUCTION WITH HSP90 INHIBITORS AND NANOSECOND PULSED ELECTRIC FIELDS” (Old Dominion University Research Foundation, priority 2015, published 2018).
# How the values were obtained:
# N1-S1 rat HCC cells = test: Cell viability of N1-S1 rat HCC cells (CellTiter-Glo) after Hsp90 inhibitor and/or nsPEF; assay type: cell-based
# Description: In some embodiments, N1-S1 rat HCC cells are exposed to an inhibitor of Hsp90 and then exposed to nsPEFs to cause cell death. In these embodiments, using the aforementioned methodology the cells mortality is greater than when either Hsp90 inhibitor or nsPEFs are employed alone. In an example, N1-S1 rat HCC cells are treated with 0.3 μM 17-AAG and incubated for 24 hours. In this example, after the 24 hours incubation period, the N1-S1 rat HCC cells are treated with a single 600 ns pulse with increasing electric field intensities (from about 10 kV/cm to about 60 kV/cm). Further to this example, cell viability is determined employing CellTiter-Glo (available from Promega, Madison, Wis.) 24 hours after pulsing.
# In an example, mitochondria membrane potential (ΔΨm) and Ca^2+ influx are determined by employing Tetramethylrhodamine, ethyl ester (TMRE) Assay Kit and green-fluorescent calcium indicator, Fluo-4, respectively, 10 minutes after pulsing. In this example, cell viability is determined employing CellTiter-Glo (available from Promega, Madison, Wis.) 24 hours after pulsing.
# In some embodiments, bar 502 illustrates the percentage of cell viability for a control sample where none of the treatments are employed. In these embodiments, bar 504 illustrates the percentage of cell viability when employing an Hsp90 inhibitor at a concentration of 0.3 μM (e.g., 17-AAG) without nsPEFs. Further to these embodiments, bar 506 illustrates the percentage of cell viability when employing only a single 600 nsPEF of 60 kV/cm. Still further to these embodiments, bar 508 illustrates the percentage of cell viability when employing both treatments (0.3 μM 17-AAG and single 600 ns pulse of 60 kV/cm). In an example, N1-S1 HCC cells are employed for the cell viability test.
# [1] = test system: caspase 3/7 catalytic activity in N1-S1 cells; test: Caspase 3/7 catalytic activity in N1-S1 cells (Caspase-Glo); assay type: cell-based, rat
# Description: In some embodiments, bar graph 402 represents the percentage change in caspase 3/7 catalytic activity after four (4) hours of incubation with 0.3 μM 17-AAG followed by the application of a single 600 ns pulse at different electric field intensities (from 0 to about 60 kV/cm). In these embodiments, bar graph 432 represents the percentage change in […] after 16 hours of incubation with 0.3 μM 17-AAG followed by the application of a single 600 ns pulse at different electric field intensities (from 0 to about 60 kV/cm).
# In some embodiments, N1-S1 cells were incubated with or without 17-AAG for 4 hours or 16 hours to determine a synergistic activation of caspase 3/7 with 17-AAG and nsPEFs. In these embodiments, after the incubation period, N1-S1 cells were then treated with nsPEFs with increasing electric fields (one 600 ns pulse) and assayed for caspase 3/7 catalytic activity two (2) hours after pulsing. In an example, caspase 3/7 catalytic activity is measured employing Caspase-Glo (available from Promega, Madison, Wis.) 2 hours after pulsing.
# cleaved caspase 3 = test: Western blot for cleaved caspase 3 relative to β-actin (LI-COR Odyssey CLx); assay type: cell-based
# Description: FIG. 7 is a graphical representation illustrating western blot test results for cleaved caspase 3 when employing an Hsp90 inhibitor at different concentrations, according to an embodiment. In FIG. 7, western blot test results 700 include stained bands 702 and cleaved caspase 3 fold change graph 708. In FIG. 7, stained bands 702 include cleaved caspase 3 bands 704 and β-actin bands 706. In FIG. 7, cleaved caspase 3 fold change graph 708 includes bars 710, 712, and 714. In an example, the western blot data is quantified using a LI-COR Odyssey CLx imaging system. In FIG. 7, stained bands 702 is a photographic representation depicting an expression of cleaved caspase 3 as a function of concentration of an Hsp90 inhibitor (e.g., AUY922). In FIG. 7, cleaved caspase 3 fold change graph 708 is a graphical representation illustrating fold changes of caspase 3 with respect to β-actin. FIG. 8 is a graphical representation illustrating western blot test results for cleaved caspase 3 when employing an Hsp90 inhibitor alone, nsPEF alone, or a combination of both treatments, according to an embodiment. In FIG. 8, western blot test results 800 include stained bands 802 and caspase 3 fold change graph 808. In FIG. 8, stained bands 802 include cleaved caspase 3 bands 804, β-actin bands 806, and caspase expression 807. In FIG. 8, caspase 3-fold change graph 808 includes bars 810, 812, and 814. In an example, the western blot data is quantified using LI-COR Odyssey CLx imaging system. In some embodiments, stained bands 802 is a photographic representation depicting an expression of cleaved caspase 3 as a function of the treatment employed. In these embodiments, caspase 3 fold change graph 808 is a graphical representation illustrating fold changes of caspase 3 with respect to β-actin.
Structure (SMILES),"cell viability reduction (N1-S1 rat HCC cells; 0.3 μM 17-AAG alone, 24 h incubation, no nsPEF (bar 116, FIG. 1), viability 24 h after pulsing time)","additional increase in the reduction of cell viability (N1-S1 rat HCC cells; 0.3 μM 17-AAG plus nsPEF at about 50 kV/cm (bar 610, FIG. 6))","percentage of cell viability (N1-S1 rat HCC cells; 0.3 μM 17-AAG plus single 600 ns pulse of 60 kV (bar 508, FIG. 5))","cells killed (N1-S1 rat HCC cells; cells pre-treated with 0.3 μM 17-AAG, then single 600 ns pulse of 50 kV/cm) [%]","effect of 17-AAG on the nsPEF-induced modest change in catalytic activity ([1]; 0.3 μM 17-AAG 4 h, then 600 ns pulse at higher electric fields 50-60 kV/cm (bars 428, 430))","effect of 17-AAG on the nsPEF-induced modest change in caspase activity ([1]; 0.3 μM 17-AAG 4 h, then 600 ns pulse at lower electric fields 10-40 kV/cm (bars 420-426))","change in caspase 3/7 activity ([1]; 0.3 μM 17-AAG alone, 4 hours of incubation (bar 418, FIG. 4))","change in caspase 3/7 activity ([1]; 0.3 μM 17-AAG, 16 h of incubation, unaffected by nsPEFs (FIG. 4))",synergistic effects on caspase 3/7 activity of 17-AAG together with nsPEFs ([1]; the two treatments included together),"ratio of caspase 3 to β-actin (fold change) (cleaved caspase 3; 1 μM AUY922, no nsPEF (bar 712, FIG. 7), no AUY922 about 1)","ratio of caspase 3 to β-actin (fold change) (cleaved caspase 3; 1 μM AUY922 alone (bar 814, FIG. 8))","ratio of caspase 3 to β-actin (fold change) (cleaved caspase 3; 1 μM AUY922 plus nsPEF of 600 ns at 20 kV/cm (bar 812, FIG. 8))","ratio of caspase 3 to β-actin (fold change) (cleaved caspase 3; 10 μM AUY922, no nsPEF (bar 714, FIG. 7), no AUY922 about 1)"
C=CCNC1=C2C[C@@H](C)C[C@H](OC)[C@H](O)[C@@H](C)/C=C(\C)[C@H](OC(N)=O)[C@@H](OC)/C=C\C=C(/C)C(=O)NC(=CC1=O)C2=O [17-AAG],about 25%,about 45%,about 17%,80,no effect,no effect,no significant change,significant increases,no synergistic effects,,,,
CCNC(=O)c1noc(-c2cc(C(C)C)c(O)cc2O)c1-c1ccc(CN2CCOCC2)cc1 [AUY922],,,,,,,,,,about 2,~3,about 7,about 7
